Experimental data from patent publication EP0182317A2, “Antineoplastic agent” (priority 1984, dated 1986).

How the values were obtained:
Ehrlich carcinoma = test: Antineoplastic effect on Ehrlich carcinoma in mice (survival, T/C percent); assay type: in vivo, male ICR mouse; conditions: in the abdomen once a day for 7 days; for response vs control in vivo at 2 mg/kg / response vs control in vivo at 4 mg/kg / response vs control in vivo at 8 mg/kg / response vs control in vivo at 16 mg/kg / response vs control in vivo at 32 mg/kg / response vs control in vivo at 1 mg/kg: Mus musculus, Ehrlich, ip, 720 h
Protocol: Antineoplastic effect on Ehrlich carcinoma:
(§1) About 10^6/0.2 ml of Ehrlich carcinoma cells were placed in an abdomen of each male ICR mouse of 5 weeks old. On the next day the administration of the test sample in the abdomen was started. The test sample was given once a day for 7 days. For an untreated group, a physiological saline solution was given in the same manner as above. […] The T/C percent (T/C x 100) was determined from the average survival periods (days) of the treated group and control group. Further, 50 % lethal dose (LD50) was determined from the number of the mice which died of toxicity of the test samples administered.

[1] = 50 % lethal dose from toxic deaths in the Ehrlich carcinoma experiment; assay type: in vivo, male ICR mouse; conditions: mice bearing Ehrlich carcinoma, in the abdomen once a day for 7 days; for LD50 at 720 h: mouse, in vivo, ip; for LD50: 43200 min
Protocol: as §1

[2] = system: Salmonella typhimurium TA-98; test: Antimutagenic properties by Ames method with benzo[a]pyrene as mutagen; assay type: cell-based; conditions: for Number of colonies: B(a)P, S-9 mix; for inhibition rate: inhibition of the mutagenic effect of B(a)P
Protocol: The experiment was carried out by Ames method using Salmonella typhimurium TA-98 (hereinafter referred to as TA-98) as the test microorganism and benzo[a]pyrene (hereinafter referred to as B(a)P) as the mutagen.
0.1 ml of a solution containing […] of B(a)P and a suitable amount of a compound of the present invention was added to 0.5 ml of S-9 mix and 0.1 ml of a TA-98 suspension. The mixture was incubated at 37°C for 20 min. 2 ml of soft agar was added thereto, mixed well and then spread evenly on a glucose minimum agar medium plate. After the incubation at 37°C for 48 h, the number of colonies formed by the back mutation was counted.
The number of the colonies formed when neither B(a)P nor the compound of the present invention was used was employed as the background.
The antimutagenic properties was shown as the rate of inhibition of the mutagenic effect according to the following formula: [formula]

[3] = dose 1.0 mg/kg, observation period 60 days
[4] = dose 2.0 mg/kg, observation period 60 days
[5] = dose 4.0 mg/kg, observation period 60 days
[6] = dose 8.0 mg/kg, observation period 60 days
[7] = dose 2.0 mg/kg, observation period 30 days
[8] = dose 4.0 mg/kg, observation period 30 days
[9] = dose 8.0 mg/kg, observation period 30 days

Compound | Antineoplastic effect (T/C percent) (Ehrlich carcinoma; [4]) [%] | Antineoplastic effect (T/C percent) (Ehrlich carcinoma; [5]) [%] | Antineoplastic effect (T/C percent) (Ehrlich carcinoma; [6]) [%] | LD50 at 720 h [1] [mg/kg] | response vs control in vivo at 2 mg/kg (Ehrlich carcinoma; [4]) [%] | response vs control in vivo at 4 mg/kg (Ehrlich carcinoma; [5]) [%] | response vs control in vivo at 8 mg/kg (Ehrlich carcinoma; [6]) [%] | response vs control in vivo at 16 mg/kg (Ehrlich carcinoma; observation period 60 days) [%] | LD50 [1] | further results
2,2-dimethyl-1,3-propanediol selenite [Compound 18] | 193 | 194 | 194 |  |  |  |  |  |  | Antineoplastic effect (T/C percent) (Ehrlich carcinoma; [3]): 164%
2,3-butanediol selenite [Compound 16] | 216 | 261 | 174 |  |  |  |  |  |  | Antineoplastic effect (T/C percent) (Ehrlich carcinoma; [3]): 185%
O=[Se](O)c1ccccc1 [Compound 1, phenylseleninic acid] |  |  |  | > 16 | 123 | 129 | 141 | 149 |  | response vs control in vivo at 2 mg/kg (Ehrlich carcinoma; [7]): 123%; response vs control in vivo at 4 mg/kg (Ehrlich carcinoma; [8]): 129%; response vs control in vivo at 8 mg/kg (Ehrlich carcinoma; [9]): 141%; response vs control in vivo at 16 mg/kg (Ehrlich carcinoma; observation period 30 days): 149%
CCO[Se](=O)c1ccccc1 (stereo not shown) [Compound 2, ethyl phenylseleninate] |  |  |  | 16 to 32 |  | 118 | 134 | 193 |  | response vs control in vivo at 4 mg/kg (Ehrlich carcinoma; [8]): 118%; response vs control in vivo at 8 mg/kg (Ehrlich carcinoma; [9]): 134%; response vs control in vivo at 32 mg/kg (Ehrlich carcinoma; observation period 30 days): 87.9%; response vs control in vivo at 32 mg/kg (Ehrlich carcinoma; observation period 60 days): 88%; response vs control in vivo at 16 mg/kg (Ehrlich carcinoma; observation period 30 days): 150%
CCO[Se](=O)OCC [Compound 9, diethyl selenite] |  |  |  | 4 to 8 | 246 | 203 | 201 | 14 |  | 
CCCO[Se](=O)OCCC [Compound 10, di(n-propyl) selenite] |  |  |  | 8 | 175 | 170 | 102 | 14 |  | 
CC(C)O[Se](=O)OC(C)C [Compound 11, diisopropyl selenite] |  |  |  | 4 to 8 | 204 | 236 | 126 | 14 |  | 
O=[Se](OCCCl)OCCCl [Compound 12, di(2-chloroethyl) selenite] |  |  |  | 8 | 197 | 225 | 194 | 65 |  | 
CC(Cl)CO[Se](=O)OCC(C)Cl (stereo not shown) [Compound 13, di(2-chloropropyl) selenite] |  |  |  | 8 to 16 | 190 | 234 | 219 | 71 |  | 
O=[Se]1OCCO1 [Compound 14, 1,2-ethanediol selenite] |  |  |  | 4 to 8 | 193 | 266 | 108 | 34 |  | Number of colonies ([2]; dose 0.5 µg/plate): 231; inhibition rate ([2]; dose 0.5 µg/plate): 23.1%; Number of colonies ([2]; dose 1 µg/plate): 235; inhibition rate ([2]; dose 1 µg/plate): 21.6%; Number of colonies ([2]; dose 5 µg/plate): 156; inhibition rate ([2]; dose 5 µg/plate): 51.1%; Number of colonies ([2]; dose 10 µg/plate): 145; inhibition rate ([2]; dose 10 µg/plate): 55.2%; Number of colonies ([2]; dose 50 µg/plate): 76; inhibition rate ([2]; dose 50 µg/plate): 81.0%; Number of colonies ([2]; dose 100 µg/plate): 62; inhibition rate ([2]; dose 100 µg/plate): 86.2%; Number of colonies ([2]; dose 500 µg/plate): 32; inhibition rate ([2]; dose 500 µg/plate): 97.4%
CC1CO[Se](=O)O1 (stereo not shown) [Compound 15, 1,2-propanediol selenite] |  |  |  | 8 | 258 | 204 | 105 |  |  | response vs control in vivo at 1 mg/kg (Ehrlich carcinoma; [3]): 227%
O=[Se]1OCCCO1 [Compound 17, 1,3-propanediol selenite] |  |  |  | 4 to 8 | 221 | 197 | 83 |  |  | response vs control in vivo at 1 mg/kg (Ehrlich carcinoma; [3]): 174%
selenium oxybromide·dioxane complex [Compound 8] | 182 | 226 | 228 |  |  |  |  |  | 8 - 16 mg/kg/day x7 | 
selenium oxychloride [Compound 3] |  |  |  |  |  |  |  |  | 6 mg/kg/day x7 | Number of colonies ([2]; dose 0.5 µg/plate): 205; inhibition rate ([2]; dose 0.5 µg/plate): 30.3%; Number of colonies ([2]; dose 1 µg/plate): 230; inhibition rate ([2]; dose 1 µg/plate): 22.0%; Number of colonies ([2]; dose 5 µg/plate): 154; inhibition rate ([2]; dose 5 µg/plate): 52.0%; Number of colonies ([2]; dose 10 µg/plate): 132; inhibition rate ([2]; dose 10 µg/plate): 60.6%; Number of colonies ([2]; dose 50 µg/plate): 72; inhibition rate ([2]; dose 50 µg/plate): 84.3%; Number of colonies ([2]; dose 100 µg/plate): 70; inhibition rate ([2]; dose 100 µg/plate): 85.6%; Number of colonies ([2]; dose 500 µg/plate): 27; inhibition rate ([2]; dose 500 µg/plate): 100%; Antineoplastic effect (T/C percent) (Ehrlich carcinoma; dose 0.75 mg/kg, observation period 60 days): 141%; Antineoplastic effect (T/C percent) (Ehrlich carcinoma; dose 1.5 mg/kg, observation period 60 days): 222%; Antineoplastic effect (T/C percent) (Ehrlich carcinoma; dose 3.0 mg/kg, observation period 60 days): 168%; Antineoplastic effect (T/C percent) (Ehrlich carcinoma; dose 6.0 mg/kg, observation period 60 days): 105%
selenium oxychloride·dioxane complex [Compound 7] | 211 | 225 | 194 |  |  |  |  |  | 8 - 16 mg/kg/day x7 | 
selenium oxychloride·isoquinoline complex [Compound 6] | 211 | 206 | 187 |  |  |  |  |  |  | Antineoplastic effect (T/C percent) (Ehrlich carcinoma; [7]): 158.5%; Antineoplastic effect (T/C percent) (Ehrlich carcinoma; [8]): 164.8%; Antineoplastic effect (T/C percent) (Ehrlich carcinoma; [9]): 162.9%
selenium oxychloride·quinoline complex [Compound 5] | 131 | 199 | 269 |  |  |  |  |  | >16 mg/kg/day x7 | Antineoplastic effect (T/C percent) (Ehrlich carcinoma; [7]): 131.4%; Antineoplastic effect (T/C percent) (Ehrlich carcinoma; [8]): 156.0%; Antineoplastic effect (T/C percent) (Ehrlich carcinoma; [9]): 181.8%
selenium tetrabromide [Compound 20] | 196 | 272 | 183 |  |  |  |  |  | 8-16 mg/kg/day x7 | 
selenium tetrachloride [Compound 19] | 179 | 249 | 183 |  |  |  |  |  | >16 mg/kg/day x7 | Antineoplastic effect (T/C percent) (Ehrlich carcinoma; [3]): 167%
selenium tetrachloride·pyridine complex [Compound 21] | 155 | 217 | 246 |  |  |  |  |  | 8-16 mg/kg/day x7 | 
